As a reminder, the IC50 is the concentration that inhibits the measured activity by half. Low readings indicate higher potency, high ones lower potency.

“Also recorded” adds a separate entry of the source. Non-standard residues stand in square brackets, D forms with d. Residues, ends and D or L forms follow the SMILES beside them. *: point of attachment. Octanoyl = CCCCCCCC(=O)*; NH(CH2)4NH2 = NCCCCN* A value given as a limit tells only on which side of the number the result lay.

One data set deals with human cells Kasumi. In words: MTT cytotoxicity assay, Kasumi. The data set is classed as cell-based. The procedure, abridged:
(§1)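 Compound cytotoxicity is assessed with the MTT method in human cancer cells and normal 2B lung epithelial cells.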

The test system of data set [1] is S. brevitalea DSM 7029 wild type. Description: Growth curve of DSM 7029 wild type with compounds (Bioscreen C). The data set is classed as cell-based, Schlegelella brevitalea DSM 7029. Conditions: CYMG medium, compound 0.1 μg/μL, OD600 every hour for 42 h, Bioscreen C. How it is done:
The growth curve was tested by Bioscreen C (Labsystems, Finland) as follow. Overnight culture was inoculated into 400 μL fresh CYMG medium in the ratio of 1:100 (the concentration of compounds was 0.1 μg/μL) and shook in normal speed. The OD600 value was gained in every hour for 42 h in total. Biofilm formation was measured at 18 h and 36 h respectively, as reported previously. In brief, the free-floating cells were removed, and the microtitre plate was washed with PBS (pH 7.4) after incubation for 18 h and 36 h. The biofilm was stained by adding 200 µL of crystal violet (0.1%) solution. Crystal violet solution was removed after 15 min and 200 µL of ethanol (95%) was added. The absorbance at OD600 was read using a microplate reader (Infinite M200, Tecan, Männedorf, Switzerland). Meanwhile, free-floating cells were used to test the secretion of pigment. The bacteria were removed and the supernatant was measured at OD600.

The nature of data set [2]: Chemical stability of 1 in MeOH (oxidation to 2). The data set is classed as physicochemical. Conditions: purified 1 dissolved in MeOH for 3 days.
The test system of data set [3] is methionyl-tRNA formyltransferase (Fmt). In words: In vitro transformylation assay with Fmt. The data set is classed as biochemical, Schlegelella brevitalea DSM 7029. Conditions: 1 mM substrate, 25 μM Fmt, 1.5 mM N5,N10-methenylH4F, 50 mM HEPES pH 7.5, 30 °C, 4 h. The protocol:
The in vitro assay of formyltransferase was tested. In brief, the formyl-donor co-substrate intermediate N^5, N^10-methenylH4F was first synthesized as follow: 14 mg of N^5-fH4F was dissolved in 3 mL of water and was converted to N^5, N^10-methenylH^4F through addition of 0.1 M HCl, until pH 1.9 was reached. The solution was then brought to a final volume of 4.4 mL with water and continually incubated at room temperature for 4 h. Then, the transformylation assay was setup in a 50 μL volume, in the presence of 50 mM HEPES buffer pH 7.5, 1 mM substrates (compounds 1, 1a, 13a), 1.5 mM N^5, N^10-methenylH4F, and 25 μM Fmt (35 kDa). Before the addition of the compounds and the enzyme, the intermediate N^5, N^10-methenylH4F was preincubated in the reaction buffer at 30 °C for 30 min, to permit the final pH-dependent conversion to N^10-fH4F. After the addition of the compounds and the enzyme, the reaction was allowed to proceed for 4 h at 30 °C, then ceased by the addition of 2 μL FA, and analyzed via HPLC‒MS. The condition for 1: 0–3 min, 20% ACN; 3–18 min, 20–60% ACN; 18.1 min, 95% ACN; 18.1–22 min, 95% ACN; 22.1 min, 20% ACN; 22.1–25 min, 20% ACN, ACN and H2O contained 0.1% FA; detection by UV spectroscopy at 200–400 nm. […]

In data set [4] the test system is S. brevitalea DSM 7029 wild type. Description: Biofilm formation of DSM 7029 wild type with compounds (crystal violet). It is filed as cell-based, Schlegelella brevitalea DSM 7029. The essentials: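 CYMG medium inoculated 1:100 from overnight culture with compounds at 0.1 μg/μL; OD600 read hourly for 42 h with shaking. Biofilm quantified at 18 h and 36 h by 0.1% crystal violet staining, 95% ethanol elution, OD600. Pigment secretion measured as OD600 of cell-free supernatant.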

Data set [5] has as its system human acute lymphoblastic leukemia cells K562. Description: cells. The settings on record: 24 h. It is filed as cell-based. The procedure, abridged: as §1
The test system of data set [6] is human hepatoma cell HepG-2. In words: cells. It is filed as cell-based. Conditions: 24 h. The procedure, abridged:
as §1

Data set [7] relates to human breast adenocarcinoma cells MDA-MB-231. Description: cells. It is filed as cell-based. Conditions: 24 h. The procedure, abridged:
(§2)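 Cytotoxicity in Kasumi, HepG-2, SGC-7901 and normal lung epithelial 2B cells, among other human tumour lines, was measured by MTT assay.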

Data set [8] concerns human breast adenocarcinoma cells MCF7. Description: cells. The data set is classed as cell-based. Conditions: 24 h. The procedure, abridged:
as §1

The test system of data set [9] is human lung epithelial normal cell 2B. In words: cells. The settings on record: 24 h. The data set is classed as cell-based. The essentials:
as §1

Data set [10] has as its system human gastric cancer cell SGC-7901. Description: cells. It is filed as cell-based. The settings on record: 24 h. The essentials:
as §1

Data set [11] deals with human colon cancer cell HCT-116. In words: cells. The settings on record: 24 h. The data set is classed as cell-based. The essentials: as §2
Data set [12] has as its system human lung adenocarcinoma cell A549. In words: MTT cytotoxicity assay, A549. It is filed as cell-based. The settings on record: for IC50: 24 h. The procedure, abridged:
as §2
In general terms: Tetrazolium assays rely on reduction of a dye to a coloured formazan, in cell work by metabolically active cells.

In another data set the test system is RAW 264.7 cells. In words: NO production in LPS-induced RAW264.7 cells (Griess method), anti-inflammatory. It is filed as cell-based. Conditions: compounds 0-80 μM for 30 min, then co-treatment with LPS 24 h; Griess reagents, OD 540 nm. From the text:
The two human acute lymphoblastic leukemia cells K562 and Kasumi, two human breast adenocarcinoma cells MCF7 and MDA-MB-231, human hepatoma cell HepG-2, human lung adenocarcinoma cell A549, human gastric cancer cell SGC-7901, human colon cancer cell HCT-116, human ovarian cancer cell line SKOV3, or human lung epithelial normal cell 2B were obtained from Beyotime Biotechnology and utilized to test the cytotoxicity of compounds by MTT assays as previous study. The anti-inflammatory effect of the compounds was detected by the influence on the increase in the level of nitric oxide caused by lipopolysaccharide (LPS) based on the classic Griess method. RAW 264.7 cells (Shanghai Institutes for Biological Science) were seeded in 96-well plates and incubated for 24 h. Then, cells were treated with compounds 29, 29a, 31, and 31a (0-80 μM) for 30 min, followed by co-treatment with LPS ([…]) for another 24 h. The Nitric Oxide assay kit with Griess reagents (Beyotime, Lot: S0021, Shanghai, China) was used to examine cellular supernatant nitrite accumulation, which represents cellular NO levels. The OD value of 540 nm absorbance was detected with a microplate reader. […]
We measured NO production to test the anti-inflammatory activity of compounds […]
cellular NO levels. The OD value of 540 nm absorbance was detected with a microplate […]
Background: The Griess reaction detects nitrite, a stable product of nitric oxide.

In data set [13] the test system is human ovarian cancer cell line SKOV3. In words: cells. It is filed as cell-based. The settings on record: 24 h. The essentials:
as §1

A further data set relates to tumor lines. In words: MTT cytotoxicity assay, statements on the whole panel. The data set is classed as cell-based, human. The essentials: as §1
The mark [14] stands for this setting: relative to wild type treated with H2O = 100%, crystal violet 0.1%, OD600, mean of n = 3.

For `CSCC[C@@H](N)C(=O)N[C@H](CC(N)=O)C(=O)N1CCC[C@H]1C(=O)N[C@H](C(=O)N[C@H](Cc1ccccc1)C(=O)N1CCC[C@H]1C(=O)N[C@@H](Cc1c[nH]c2ccccc12)C(=O)N[C@@H](C(=O)N[C@@H](C)C(=O)N[C@H](C)C(=O)N[C@@H](CO)C(=O)N[C@@H](C)C(=O)NCCCCN)C(C)C)C(C)C` [Compound 1, Glidonin A] (H-[dM][dN]PV[dF]PW[dV]A[dA]SA-{NH(CH2)4NH2}), the half-maximal inhibitory concentration (IC50) with human cells Kasumi (24 h) is 18.3 ± 1.22 µM; in data set [5] it was more than 20 µM; in [6], more than 20 µM; in [7], more than 20 µM; in data set [8], more than 20 µM; in [9] it was more than 20 µM. The IC50 in data set [10] is more than 20 µM; in [11], more than 20 µM; in data set [12], 7.2 ± 0.79 µM. Further, the “cytotoxic activity against Kasumi in words” value with human cells Kasumi (MTT assay) is given as “moderate activities”. For the same molecule, the “effect on growth of DSM 7029 wild type in words” value in data set [1] is on record as “no effect”. For the same molecule, the “chemical stability: change of 1 to the Met(O) product 2” value in data set [2] is reported as “without changing to 2”. Also, the “formylation by Fmt, formyl product by HPLC-MS” value in data set [3] is “higher than control”. Further, the “effect on biofilm formation of DSM 7029 wild type in words” value in data set [4] (crystal violet staining) is reported as “less effect on biofilm formation”. In [4] (setting [14]), the “biofilm formation 18 h, Average” value is recorded as 98.1978%. In addition, the “biofilm formation 36 h, Average” value in data set [4] (setting [14]) was determined as 87.2902%. For the same molecule, the “cytotoxic / antitumor activity against A549 in words” value in data set [12] (MTT assay) is reported as “moderate activities”.

Regarding `CCCCCCCC(=O)N[C@H](C(=O)N[C@@H](Cc1ccccc1)C(=O)N[C@@H](CCC(=O)O)C(=O)N[C@H](C(=O)N[C@@H](C)C(=O)NCCCCN)[C@@H](C)CC)C(C)C` [Compound 31] (Octanoyl-VFEIA-{NH(CH2)4NH2}; N-terminus assumed), in the data set with RAW 264.7 cells, the “anti-inflammatory activity (NO production in LPS-induced RAW264.7 cells) in words” value was “higher anti-inflammatory and antitumor activities than 29a and 31a; also recorded: moderate; also recorded: suppressed moderately the release”. Moreover, the 50% inhibitory concentration (IC50) in [6] was 136.2 ± 0.15 µM; in data set [7], 168.9 ± 1.05 µM; in [13], 241.4 ± 0.07 µM; in [9], 42.6 ± 1.25 µM; in [12], 198.3 ± 1.25 µM; with tumor lines (24 h), more than 40 µM. For the same molecule, the “cytotoxic / antitumor activity in words” value in the data set with tumor lines (MTT assay, panel of tumor cell lines) was “higher anti-inflammatory and antitumor activities than 29a and 31a”.

The values are drawn from PMC10587159, “Biosynthesis and engineering of the nonribosomal peptides with a C-terminal putrescine” (Nature Communications, 2023).
